According to patent US4307072A, “N-Triiodobenzoylaminoacyl polyhydroxic amines” (Mallinckrodt, Inc., priority 1977, dated 1981):
Converted amounts (≈) assume the structure as drawn.

Experiments:
Swiss albino mice [1] = assay: Intravenous toxicity study in mice (seven-day LD50); type: in vivo; details: lateral tail vein, 1 ml./min., concentration I W/V: Example 1 26.3, Example 2 11.25, Example 3 28.2, Example 5 28.0
Procedure: (§1) Intravenous, intracerebral and intracisternal acute toxicities of the compounds of Examples 1-5 were determined according to the following procedures.
Intravenous toxicity study in mice
Swiss albino mice with weights ranging from 18 to 25 grams were used for the performance of the test. Three to four groups of mice with sexes equally represented in each group received single measured doses (mg. of contrast media/kg of body weight) injected into a lateral tail vein at a rate of 1 ml./min.
Mortalities were recorded during the first four hours then daily for seven days. After seven days, surviving animals were sacrificed and necropsies performed.
Calculation of the seven-day LD50 value was carried out according to the method of Litchfield and Wilcoxon (J. Pharmacol. Exp. Ther. 96, 99-113, 1949)

Swiss albino mice [2] = assay: Intracerebral toxicity study in mice (48 hours LD50); type: in vivo; details: 0.05 ml. (0.1 ml. maximum), concentration I W/V: Example 1 26.3, Example 2 11.25, Example 3 28.2, Example 5 28.2
Procedure: as §1
Intracerebral toxicity study in mice
Swiss albino mice of either sex, weighing 18 to 23 grams were used for this test according to the method of Haley (Brit. J. Pharmcol. 12, 12-15 1957). At each dose level, the contrast medium was injected as follows. The mouse was grasped firmly by the loose skin behind the head. After the skin was pulled taut, a 3/8 inch 27 gauge needle attached to a 0.25 ml. syringe was inserted perpendicularly through the skull into the brain at a point 2 mm. from either side of the mid line on a line drawn through the anterior base on the ears. A dose of 0.05 ml. (0.1 ml. maximum) of various concentrations of the contrast medium was injected.
Mortalities were recorded during the first four hours, then daily for two days. Surviving animals were sacrificed 48 hours after injection and the LD50 value was calculated according to the method of Litchfield and Wilcoxon (J. Pharmacol. Exp. Ther. 96, 99-113, 1949).

Sprague Dawley rats = assay: Intracisternal toxicity study in rats (LD50); type: in vivo; details: cisterna magna, single dose, seven days, concentration I W/V: Example 1 35.0, Example 2 11.25, Example 3 14.1, Example 5 35.0
Procedure: as §1
Intracisternal toxicity study in rats
The method of intracisternal administration of contrast media in rats was based on the procedure outlined by Melartin, et al. (Investigative Radiology, Jan. - Feb. 13, 12, 1970). Sprague Dawley rats were anesthetized with ether and positioned on a slanted stand. Following clipping of their hair on the nuchal and cervical area, a small midline incision was made in the skin in the occipital area to facilitate penetration of a 27 gauge needle into the cisterna magna. […] Single measured doses of the contrast medium were then injected.
Following injection, the animals were individually housed and observed for pharmacological and toxicological manifestations. Mortalities were recorded during the first four hours, then daily for seven days. Calculation of the LD50 value was carried out according to the method of Litchfield and Wilcoxon (J. Pharmacol. Exp. Ther. 96, 99-113, 1949)

physchem = details: water

| SMILES | Intravenous LD50 (Swiss albino mice [1]) | Intracerebral LD50 (Swiss albino mice [2]) [mg. I/kg.] | Intracisternal LD50 (Sprague Dawley rats) [mg. I/kg.] | solubility (Solubility in water; water) [mg/mL] | solubility (Solubility in water) [mg/mL] | solubility (physchem) [mg/mL] |
| --- | --- | --- | --- | --- | --- | --- |
| CC(=O)Nc1c(I)c(C(=O)NCC(=O)N(C)C[C@H](O)[C@@H](O)[C@H](O)[C@H](O)CO)c(I)c(N(C)C(C)=O)c1I [Example 5, N-(3-Acetamido-2,4,6-triiodo-5-N-methylacetamidobenzoylglycyl)-1-(methylamino)-1-deoxy-D-glucitol] | ~8,000 mg. I/kg. | ~1100 | 400 | ~1000 (≈ 1160 mM) |  |  |
| CC(=O)Nc1c(I)c(C(=O)NCC(=O)N[C@@H](CO)[C@@H](O)[C@H](O)[C@H](O)CO)c(I)c(N(C)C(C)=O)c1I [Example 1, 2-(3-Acetamido-2,4,6-triiodo-5-N-methylacetamidobenzoylglycylamino)-2-deoxy-D-glucitol] | ~10,000 mg. I/kg. | ~1550 | ~525 | ~1000 (≈ 1180 mM) | 1000 (≈ 1180 mM) |  |
| CC(=O)Nc1c(I)c(C(=O)NCC(=O)N(C)CC(O)CO)c(I)c(C(=O)NCC(=O)N(C)CC(O)CO)c1I (centres unmarked) [Example 3, (5-Acetamido-2,4,6-triiodoisophthaloyl)-N,N'-bis-2,3-dihydroxypropyl-N,N'-dimethyl-bis glycinamide] | > 15,000 mg. I/kg. | ~1425 | 100 |  |  | ~1000 (≈ 1120 mM) |
| CNC(=O)c1c(I)c(NC(C)=O)c(I)c(C(=O)NCC(=O)N[C@@H](CO)[C@@H](O)[C@H](O)[C@H](O)CO)c1I [Example 2, 2-Deoxy-2-(3-Acetamido-2,4,6-triiodo-5-N-methylcarbamyl-benzoylglycylamino)-D-glucitol] | > 7,500 mg. I/kg. | > 543 | < 200 | ~50 (≈ 59.9 mM) |  |  |
